Experimental data taken from patent publication US20040053822A1, “Inducing cellular immune responses to mage2/3 using peptide and nucleic acid compositions” (priority 2002, published 2004).
Like-named read-outs stand apart in the source and are kept apart here. Residues, ends and D or L forms follow the SMILES beside them.

Columns and labels:
[1] = target: HLA-B*0702 (Homo sapiens, UniProt P01889); test: Purified HLA class I peptide binding assay, B*0702
[2] = target: HLA-B*5101 (B51) (Homo sapiens, UniProt P01889, A329T/A93T/A95T/C349S/D138N/D201E/D98Y/E187L/E204Q/E69T/G107R/I218V/K202T/L105A/L119W/N104I/Q94N/R106L/R155S/R180L/S101N/S121T/S35A/S48A/V306I/V36M/Y195H/Y91F); test: Purified HLA class I peptide binding assay, B51; conditions: binding affinity, HLA-B7 supermotif-bearing peptides
[3] = target: HLA-B*5301 (Homo sapiens, UniProt P01889, A329T/A93T/A95T/C349S/D201E/D98Y/E176V/E187L/E204Q/E69T/G107R/I218V/K202T/L105A/L119I/N104I/Q94N/R106L/R155S/R180L/S101N/S121R/S35A/S48A/T118I/V127L/V306I/V36M/Y140S/Y91F); test: Purified HLA class I peptide binding assay, B*5301
[4] = target: HLA-B*5401 (Homo sapiens, UniProt P01889, A329T/C349S/D138N/D201E/E176V/E187T/E204Q/E69G/I76V/K202T/L119W/R155S/R180L/S121T/S35A/S48A/V127L/V306I/V36M/Y140L); test: Purified HLA class I peptide binding assay, B*5401
[5] = target: HLA-B*3501 (Homo sapiens, UniProt P01889, A329T/A93T/A95T/C349S/D201E/D98Y/E176V/E187L/E204Q/E69T/I218V/K202T/L119I/Q94N/R155S/R180L/S121R/S35A/S48A/T118I/V127L/V306I/V36M/Y140S/Y91F); test: Purified HLA class I peptide binding assay, B*3501
[6] = binding affinity, HLA-B7 supermotif-bearing peptides

## CC[C@H](C)[C@H](NC(=O)[C@H](Cc1c[nH]cn1)NC(=O)[C@@H]1CCCN1C(=O)[C@@H](N)Cc1ccccc1)C(=O)N[C@@H](CO)C(=O)N[C@@H](Cc1ccc(O)cc1)C(=O)N1CCC[C@H]1C(=O)N1CCC[C@H]1C(=O)N[C@@H](CC(C)C)C(=O)O
[1]; [6]
  IC50: 1.7 nM
[2]; read-out: B*5101 nM
  IC50: 177 nM
[3]; [6]
  IC50: 490 nM
[4]; [6]
  IC50: 3.8 nM

## CC[C@H](C)[C@H](NC(=O)[C@H](Cc1ccc(O)cc1)NC(=O)[C@H](CC(C)C)NC(=O)[C@H](Cc1c[nH]cn1)NC(=O)[C@H](CO)NC(=O)[C@@H](NC(=O)[C@@H]1CCCN1C(=O)[C@@H](N)Cc1ccccc1)[C@@H](C)CC)C(=O)O
[1]
  IC50: 212 nM
[5]
  IC50: 655 nM
[2]; B*5101 nM
  IC50: 42 nM
[3]
  IC50: 358 nM
[4]
  IC50: 59 nM

## CSCC[C@H](NC(=O)[C@@H](NC(=O)[C@@H](NC(=O)[C@@H]1CCCN1C(=O)[C@@H](N)Cc1ccccc1)[C@@H](C)O)[C@@H](C)O)C(=O)N[C@@H](CC(N)=O)C(=O)N[C@@H](Cc1ccc(O)cc1)C(=O)N1CCC[C@H]1C(=O)N[C@@H](CC(C)C)C(=O)N[C@@H](Cc1c[nH]c2ccccc12)C(=O)O
[1]; [6]
  IC50: 220 nM
[2]; read-out: B*5101 nM
  IC50: > 10000 nM
[4]; [6]
  IC50: 42 nM

## CC[C@H](C)[C@H](NC(=O)[C@H](CC(C)C)NC(=O)[C@H](CC(C)C)NC(=O)CNC(=O)[C@H](C)NC(=O)[C@H](CCCCN)NC(=O)[C@@H]1CCCN1C(=O)[C@@H](N)Cc1ccccc1)C(=O)N[C@H](C(=O)N[C@H](C(=O)O)C(C)C)[C@@H](C)CC (H-FPKAGLLIIV-OH; N-terminus and C-terminus assumed)
[1]; [6]
  IC50: 220 nM
[5]; [6]
  IC50: 878 nM
[2]; read-out: B*5101 nM
  IC50: 190 nM
[3]; [6]
  IC50: 4650 nM
[4]; [6]
  IC50: 1.1 nM

## CC[C@H](C)[C@H](NC(=O)[C@@H](NC(=O)[C@H](Cc1ccc(O)cc1)NC(=O)[C@H](CC(C)C)NC(=O)[C@H](Cc1c[nH]cn1)NC(=O)CNC(=O)[C@@H](NC(=O)[C@@H]1CCCN1C(=O)[C@@H](N)Cc1ccccc1)[C@@H](C)CC)[C@@H](C)CC)C(=O)O
[1]; [6]
  IC50: 3.4 nM
[5]; [6]
  IC50: 77 nM
[2]; read-out: B*5101 nM
  IC50: 5 nM
[4]; [6]
  IC50: 0.6 nM

## CC[C@H](C)[C@H](NC(=O)[C@H](CC(C)C)NC(=O)[C@H](CC(=O)O)NC(=O)[C@H](CCC(N)=O)NC(=O)[C@H](CCSC)NC(=O)[C@H](CC(C)C)NC(=O)[C@H](CC(C)C)NC(=O)[C@H](CCCCN)NC(=O)[C@H](CCCNC(=N)N)NC(=O)[C@@H]1CCCN1C(=O)[C@@H](N)Cc1ccccc1)C(=O)O
[1]; [6]
  IC50: 86 nM
[5]; [6]
  IC50: > 10000 nM
[2]; read-out: B*5101 nM
  IC50: 367 nM
[4]; [6]
  IC50: 100 nM

## CC[C@H](C)[C@H](NC(=O)[C@H](CC(C)C)NC(=O)[C@@H](NC(=O)[C@H](Cc1ccc(O)cc1)NC(=O)[C@H](CC(C)C)NC(=O)[C@H](Cc1c[nH]cn1)NC(=O)[C@H](CO)NC(=O)[C@@H](NC(=O)[C@@H]1CCCN1C(=O)[C@@H](N)Cc1ccccc1)[C@@H](C)CC)[C@@H](C)CC)C(=O)O
[1]; [6]
  IC50: 97 nM
[2]; read-out: B*5101 nM
  IC50: 13 nM
[3]; [6]
  IC50: 4.9 nM
[4]; [6]
  IC50: 2.6 nM

## CC[C@H](C)[C@H](NC(=O)[C@@H]1CCCN1C(=O)[C@@H]1CCCN1C(=O)[C@H](Cc1ccc(O)cc1)NC(=O)[C@H](CO)NC(=O)[C@@H](NC(=O)[C@H](Cc1c[nH]cn1)NC(=O)[C@@H]1CCCN1C(=O)[C@@H](N)Cc1ccccc1)[C@@H](C)CC)C(=O)O
[1]; [6]
  IC50: 2.9 nM
[5]; [6]
  IC50: 360 nM
[3]; [6]
  IC50: 233 nM
[4]; [6]
  IC50: 1.4 nM

## CC[C@H](C)[C@H](NC(=O)[C@H](CC(C)C)NC(=O)[C@H](CC(C)C)NC(=O)CNC(=O)[C@@H](NC(=O)[C@H](CCCCN)NC(=O)[C@@H]1CCCN1C(=O)[C@@H](N)Cc1ccccc1)[C@@H](C)O)C(=O)O
[1]; [6]
  IC50: 134 nM
[5]; [6]
  IC50: > 10000 nM
[2]; read-out: B*5101 nM
  IC50: 16 nM
[3]; [6]
  IC50: 3320 nM
[4]; [6]
  IC50: 37 nM

## CC[C@H](C)[C@H](NC(=O)[C@@H](NC(=O)[C@H](CC(C)C)NC(=O)[C@H](CC(C)C)NC(=O)CNC(=O)[C@@H](NC(=O)[C@H](CCCCN)NC(=O)[C@@H]1CCCN1C(=O)[C@@H](N)Cc1ccccc1)[C@@H](C)O)[C@@H](C)CC)C(=O)O
[5]; [6]
  IC50: > 10000 nM
[2]; read-out: B*5101 nM
  IC50: 32 nM
[3]; [6]
  IC50: 266 nM
[4]; [6]
  IC50: 10 nM

## CC[C@H](C)[C@H](NC(=O)[C@@H](NC(=O)[C@H](Cc1ccc(O)cc1)NC(=O)[C@H](CC(C)C)NC(=O)[C@H](Cc1c[nH]cn1)NC(=O)[C@H](CO)NC(=O)[C@@H](NC(=O)[C@@H]1CCCN1C(=O)[C@@H](N)Cc1ccccc1)[C@@H](C)CC)[C@@H](C)CC)C(=O)O
[1]; [6]
  IC50: 2.9 nM
[2]; read-out: B*5101 nM
  IC50: 4.2 nM
[3]; [6]
  IC50: 4.4 nM
[4]; [6]
  IC50: 0.6 nM

## CC[C@H](C)[C@H](NC(=O)[C@H](Cc1ccc(O)cc1)NC(=O)[C@H](CC(C)C)NC(=O)[C@H](Cc1c[nH]cn1)NC(=O)CNC(=O)[C@@H](NC(=O)[C@@H]1CCCN1C(=O)[C@@H](N)Cc1ccccc1)[C@@H](C)CC)C(=O)N[C@@H](Cc1ccccc1)C(=O)N[C@@H](C)C(=O)O (H-FPIGHLYIFA-OH; N-terminus and C-terminus assumed)
[1]; [6]
  IC50: 39 nM
[5]; [6]
  IC50: 51 nM
[2]; read-out: B*5101 nM
  IC50: 56 nM
[3]; [6]
  IC50: 179 nM
[4]; [6]
  IC50: 0.4 nM

## CC[C@H](C)[C@H](NC(=O)[C@H](CC(C)C)NC(=O)[C@H](C)NC(=O)[C@H](CCCNC(=N)N)NC(=O)[C@@H]1CCCN1C(=O)[C@@H](N)Cc1ccccc1)C(=O)N[C@@H](CCC(=O)O)C(=O)N[C@H](C(=O)N[C@@H](CO)C(=O)N[C@@H](Cc1ccc(O)cc1)C(=O)N[C@H](C(=O)O)C(C)C)[C@@H](C)O
[1]; [6]
  IC50: 6.3 nM
[5]; [6]
  IC50: 4500 nM
[2]; read-out: B*5101 nM
  IC50: 128 nM
[3]; [6]
  IC50: 7750 nM
[4]; [6]
  IC50: 7.1 nM

## CC[C@H](C)[C@H](NC(=O)[C@H](Cc1ccc(O)cc1)NC(=O)[C@H](CO)NC(=O)[C@@H](NC(=O)[C@H](CCC(=O)O)NC(=O)[C@@H](NC(=O)[C@H](CC(C)C)NC(=O)[C@H](C)NC(=O)[C@H](CCCNC(=N)N)NC(=O)[C@@H]1CCCN1C(=O)[C@@H](N)Cc1ccccc1)C(C)C)[C@@H](C)O)C(=O)O
[5]; [6]
  IC50: 5540 nM
[2]; read-out: B*5101 nM
  IC50: 117 nM
[3]; [6]
  IC50: 620 nM
[4]; [6]
  IC50: 59 nM

## CC[C@H](C)[C@H](NC(=O)[C@H](CO)NC(=O)[C@H](CO)NC(=O)[C@H](C)NC(=O)CNC(=O)[C@H](CCC(N)=O)NC(=O)[C@@H]1CCCN1C(=O)[C@@H](N)Cc1ccccc1)C(=O)O
[5]; [6]
  IC50: > 10000 nM
[3]; [6]
  IC50: 3000 nM
[4]; [6]
  IC50: 400 nM

## CC[C@H](C)[C@H](NC(=O)[C@H](CO)NC(=O)[C@H](CCC(N)=O)NC(=O)[C@H](CO)NC(=O)[C@H](Cc1c[nH]c2ccccc12)NC(=O)[C@H](CC(C)C)NC(=O)[C@@H]1CCCN1C(=O)[C@@H](N)Cc1ccccc1)C(=O)O
[1]; [6]
  IC50: 122 nM
[5]; [6]
  IC50: 1010 nM
[3]; [6]
  IC50: 245 nM
[4]; [6]
  IC50: 15 nM

## CC(C)C[C@H](NC(=O)[C@H](C)NC(=O)[C@H](CCCNC(=N)N)NC(=O)[C@@H]1CCCN1C(=O)[C@@H](N)Cc1ccccc1)C(=O)N[C@H](C(=O)N[C@@H](CCC(=O)O)C(=O)N[C@H](C(=O)N[C@@H](CO)C(=O)N[C@@H](Cc1ccc(O)cc1)C(=O)N[C@H](C(=O)O)C(C)C)[C@@H](C)O)C(C)C
[1]; [6]
  IC50: 4.2 nM
[5]; [6]
  IC50: 4230 nM
[2]; read-out: B*5101 nM
  IC50: 204 nM
[3]; [6]
  IC50: > 10000 nM
[4]; [6]
  IC50: 10 nM

## CC[C@H](C)[C@H](NC(=O)[C@H](CC(C)C)NC(=O)[C@H](CC(C)C)NC(=O)CNC(=O)[C@H](C)NC(=O)[C@H](CCCCN)NC(=O)[C@@H]1CCCN1C(=O)[C@@H](N)Cc1ccccc1)C(=O)O
[5]; [6]
  IC50: > 10000 nM
[2]; read-out: B*5101 nM
  IC50: 8.2 nM
[3]; [6]
  IC50: 775 nM

## CSCC[C@H](NC(=O)[C@@H](NC(=O)[C@@H](NC(=O)[C@@H]1CCCN1C(=O)[C@@H](N)Cc1ccccc1)[C@@H](C)O)[C@@H](C)O)C(=O)N[C@@H](CC(N)=O)C(=O)N[C@@H](Cc1ccc(O)cc1)C(=O)N1CCC[C@H]1C(=O)N[C@@H](CC(C)C)C(=O)O (H-FPTTMNYPL-OH; N-terminus and C-terminus assumed)
[1]; [6]
  IC50: 6.4 nM
[5]; [6]
  IC50: 4.5 nM
[2]; read-out: B*5101 nM
  IC50: 423 nM
[3]; [6]
  IC50: 39 nM
[4]; [6]
  IC50: 3 nM

## CC[C@H](C)[C@H](NC(=O)[C@@H](NC(=O)[C@@H](NC(=O)[C@H](CC(C)C)NC(=O)[C@H](CC(C)C)NC(=O)CNC(=O)[C@H](C)NC(=O)[C@H](CCCCN)NC(=O)[C@@H]1CCCN1C(=O)[C@@H](N)Cc1ccccc1)[C@@H](C)CC)[C@@H](C)CC)C(=O)O
[1]; [6]
  IC50: 204 nM
[5]; [6]
  IC50: 2670 nM
[2]; read-out: B*5101 nM
  IC50: 65 nM
[3]; [6]
  IC50: 846 nM

## CC[C@H](C)[C@H](NC(=O)[C@@H]1CCCN1C(=O)[C@H](Cc1ccc(O)cc1)NC(=O)[C@H](CC(N)=O)NC(=O)[C@H](CCSC)NC(=O)[C@@H](NC(=O)[C@@H](NC(=O)[C@@H]1CCCN1C(=O)[C@@H](N)Cc1ccccc1)[C@@H](C)O)[C@@H](C)O)C(=O)O
[1]; [6]
  IC50: 59 nM
[5]; [6]
  IC50: 22 nM
[3]; [6]
  IC50: 8.5 nM
[4]; [6]
  IC50: 1.5 nM
